Data as given in publication PMC12081684, “A three-dimensional high throughput assay identifies novel antibacterial molecules with activity against intracellular Shigella” (npj Antimicrobials and Resistance, 2025).
pIC50: −log10 of the molar value. Like-named read-outs stand apart in the source and are kept apart here.

Tests used:
[1] = system: HepG2 cells; assay: In vitro cytotoxicity on HepG2 cells; type: cell-based; conditions: for IC50: Homo sapiens
Source text: Upon chemical review, the 15 hit compounds were reorganized based on structure similarity into 13 clusters. Two chemicals were considered as a series, and the remaining 11 clusters were singletons (Fig. 3). […] Four of the 15 structures carried an NO2 moiety, including two hits of Series 1, one hit of Series 2, and Singleton 7. Although the antibacterial activity of nitro-containing molecules is known to be broad, nitro groups have been extensively associated with mutagenicity and genotoxicity.

[2] = system: intracellular S. flexneri SF_nanoluc in Caco-2 cells on Cytodex 3 beads; assay: microbe, parasite or virus in culture
Experimental: S. flexneri SF_nanoluc was grown overnight on a 50mgL^-1 kanamycin LB plate at 37 °C. Bacteria were scraped from the plate surface and sub-cultured in warm supplemented EMEM medium for 2 h (at 37 °C and 200 rpm) and diluted to get OD around 0.3 at 625 nm. Induction was performed in 500 ml or 1000 ml siliconized spinner flasks under closed culture conditions. 200 mg autoclaved Cytodex 3 beads (GE Healthcare), rehydrated with cation-free PBS (Sigma), were washed with supplemented EMEM medium and inoculated with 1.7 million Caco-2 cells/ml in half of the desired culture volume of the medium. The spinner vessel was kept static for 4 h in a humidified atmosphere of 5% CO2 at 37 °C, allowing Caco-2 cells to bind to beads. The remaining medium was added into the vessel and stirred at 32.5 rpm. The medium was changed every 72 h, and the induction was used on day 17 to ensure Caco-2 cells were fully differentiated.
Cell concentration induction was measured by NucleoCounter® NC-100™ (ChemoMetec Version 2.4). Cellular invasion was initiated by adding the bacterial stock into cell induction with optimal MOI, and the vessel was stationary for an hour before stirring at 22.5 rpm for 5 h in a humid atmosphere of 5% CO2 at 37 °C. After incubation, culture media was discarded by centrifugation; and a gentamicin protection assay was performed, in which cell beads were washed twice with a warm medium and EMEM containing gentamicin (100ug ml^-1) was added to the chamber of the system. The cell culture was incubated for 1 h with stirring and then washed three times with a warm medium before 25 μl of the invasive mixture was dispensed into each well. Plates were incubated for two days in a humid atmosphere of 5% CO2 at 37 °C before proceeding to develop the luminescent signal by adding 10 μl mixture of nanoluciferase substrate (Nano-Glo® Luciferase Assay System, N1130, Promega) into each well. After standing at room temperature for 30 min, luminescent signals were quantified by the Envision Reader (PerkinElmer) in focus luminescent mode. For the bacterial tracking, we used the green fluorescent protein in S. flexneri ATCC 12022GFP to monitor the invasion.
The HTS assay was performed in 384-well black clear-bottom plates (Greiner). Screening compounds were prepared with an appropriate DMSO concentration (0.5% in cell-based assay). Every assay plate contained 16 wells of DMSO as negative controls and 16 wells of moxifloxacin at a final concentration of 20 μM as positive controls. These controls were used to monitor assay quality through determination of Z’ factor as well as normalizing the data on a per-plate basis.
To assess the quality of the dose-response assay, 11 commercially available antimicrobials were used to evaluate the reliability of the HTS assay. The percentage of coefficient of variation (CV%) was calculated by accessing the IC50 (μM) deviation of selected positive controls. Intra-assay reproducibility was determined by comparing the IC50 that were generated in the same run of the two replicates. Inter-assay reproducibility was assessed by comparing the IC50 generated by two replicates of each day over two days. Intra-assay %CV should be <10%, while inter-assay %CV should be <15%. To validate the HTS assay configuration, a set of 10 thousand compounds was assayed in 384-well plates at a final concentration of 10 μM. Assay were run in duplicate and confirmed if needed, a validation data was assessed to analyse the pros and cons of the whole procedure.
Following screening, all non-novel structures were removed, and the remaining compounds were subjected to a dose response (DR) assay, which was set as 3-fold serial dilution started at 100uM each compound.
The raw data of the plate reader was imported and analysed in ActivityBase and Spotfire version 10.3.1.18 (TIBCO).

[3] = CAD solubility; type: physicochemical; conditions: Table 1
[4] = Experimental Chromlog / ChromLogD pH7.4 and PFI; type: physicochemical; conditions: for Chromlog pH7.4 (Expt): pH7.4, experimental
[5] = HepG2, Table 1, read-out: HepG2 pIC50 (converted)
[6] = Shigella flexneri, Caco-2, read-out: Caco2 IC50 (μM), Table 1, 3-D Caco-2 beads, intracellular S. flexneri
[7] = Shigella flexneri, Caco-2, read-out: Caco2 pIC50, Table 1 (converted), 3-D Caco-2 beads, intracellular S. flexneri
[8] = Shigella flexneri, Caco-2, read-out: IC50 T1, 1st Batch, replicate T1
[9] = Shigella flexneri, Caco-2, read-out: IC50 T2, 1st Batch, replicate T2
[10] = Shigella flexneri, Caco-2, read-out: IC50 T3, 2nd Batch, replicate T3
[11] = Shigella flexneri, Caco-2, read-out: IC50 T4, 2nd Batch, replicate T4
[12] = HepG2, Supplementary table 8, read-out: HepG2 pIC50 (converted)
[13] = HepG2, read-out: HepG2 pIC50, Table 1 (converted)

SMILES	Selectivity (log) Caco pIC50 vs Cytotox ([2]; Caco-2)	Selectivity (log) Caco pIC50 vs cytox ([2]; Caco-2)	IC50 [2, 6]	IC50 [2, 7]	CAD sol [3]	Chromlog pH7.4 (Expt) [4]	pIC50 [2, 8]	pIC50 [2, 9]	pIC50 [2, 10]	pIC50 [2, 11]	also measured
CCn1c(-c2nonc2N)nc2c(-c3cccc(Cl)c3)ncc(C(O)c3ccn(C)n3)c21 (centres unmarked) [Compound 7]	> 1.49 log	>1.49 log	3.24 µM	3.24 µM	10 µg/mL	4.75					IC50 [1, 5]: > 100 µM
C[C@@H](O)[C@H]1C(=O)N2C(C(=O)O)=C(S[C@@H]3CN[C@H](C(=O)N(C)C)C3)[C@H](C)[C@H]12 [Meropenem, reference compound]							6.46	6.44	6.39	6.40	
C[C@@H](O)[C@H]1C(=O)N2C(C(=O)O)=C([C@H]3CCCO3)S[C@H]12 [Faropenem, reference compound]							5.89	5.91	5.84	5.84	
CO/N=C(\C(=O)N[C@@H]1C(=O)N2C(C(=O)O)=C(CSc3nc(=O)c(=O)[nH]n3C)CS[C@H]12)c1csc(N)n1 [Ceftriaxone, reference compound]							7.82	7.82	7.71	7.71	
N#Cc1cnn2c1[nH]c(=O)c1sc(-c3ccccc3)cc12 [Compound 9]	0.58 log	0.58 log	19.9 µM	20 µM	17 µg/mL	2.5					IC50 [1, 5]: 75.9 µM; IC50 ([2]; Shigella flexneri, Caco-2, read-out: Caco2 pIC50, printed in Fig. 3 (converted)): 2 µM
CN(C)[C@@H]1C(O)=C(C(N)=O)C(=O)[C@@]2(O)C(O)=C3C(=O)c4c(O)cccc4[C@@](C)(O)[C@H]3C[C@@H]12 [Tetracycline, reference compound]							5.79	5.81	5.93	5.93	
CNC(C)C1CCC(N)C(OC2C(N)CC(N)C(OC3OCC(C)(O)C(NC)C3O)C2O)O1 (centres unmarked) [Gentamicin, reference compound]							5.82	5.90	5.93	5.91	
CC[C@H]1OC(=O)[C@H](C)[C@@H](O[C@H]2C[C@@](C)(OC)[C@@H](O)[C@H](C)O2)[C@H](C)[C@@H](O[C@@H]2O[C@H](C)C[C@H](N(C)C)[C@H]2O)[C@](C)(O)C[C@@H](C)CN(C)[C@H](C)[C@@H](O)[C@]1(C)O [Azithromycin, reference compound]							6.24	6.29	6.20	6.20	
NC(=O)c1ccccc1Oc1ccc(Cl)cc1[N+](=O)[O-] [Compound 11]	0.61 log										HepG2 cytotoxicity (in words) [1]: exhibit HepG2 cytotoxicity; IC50 [1, 12]: 23.4 µM; IC50 ([2]; Shigella flexneri, Caco-2, read-out: Caco2 pIC50, Supplementary table 8 (converted)): 5.75 µM
CC(=O)c1cccc(NC(=O)Nc2ccc(S(=O)(=O)Nc3cc(C)on3)cc2)c1 [Compound 15]	> 0.76 log	>0.61 log	17.4 µM	17.4 µM	>149 µg/mL	2.04					IC50 [1, 12]: > 100 µM; IC50 [1, 13]: > 0.01 µM
CC(=O)c1csc(-c2csc(C)n2)n1 [Compound 10]	1.07 log	1.07 log	8.51 µM	8.51 µM							IC50 [1, 13]: > 100 µM
COc1ccc(C2Nc3nc4ccccc4n3C(C)=C2C(=O)Nc2ccccc2)cc1 (centres unmarked) [Compound 8]	0.38 log	0.38 log	22.9 µM	22.9 µM	10 µg/mL	4.77					HepG2 cytotoxicity (in words) [1]: exhibit HepG2 cytotoxicity; IC50 [1, 5]: 55 µM
Cc1nn(-c2ccccc2)c(C)c1NC(=O)CN1C(=O)NC(C)(c2ccco2)C1=O (centres unmarked) [Compound 14]	> 0.61 log	>0.61 log	24.6 µM	24.5 µM	>106 µg/mL	2.93					IC50 [1, 12]: > 100 µM; IC50 [1, 13]: > 0.1 µM
COc1ccc2c(CC(=O)NC(c3ccc(Cl)cc3)C3CC3)coc2c1 (centres unmarked) [Compound 13]	> 0.61 log	>0.61 log	24.6 µM	24.5 µM	53 µg/mL	6.43					IC50 [1, 12]: > 100 µM; IC50 [1, 13]: > 1 µM
CN1C(=O)[C@H](NC(=O)NCc2ccccc2)N=C(c2ccccc2)c2ccccc21 [Compound 5]			19.1 µM	19.1 µM							IC50 [1, 5]: > 100 µM; Selectivity (log) Caco pIC50 vs Cytotox ([2]; Supplementary table 8, vs HepG2): > 0.72 log; Selectivity (log) Caco pIC50 vs cytox ([2]; Table 1, Caco2 pIC50 vs HepG2 pIC50): >0.72 log
COc1ccc(-c2ccn(CC[C@](C)(C(=O)NO)S(C)(=O)=O)c(=O)c2)c(F)c1 [PF5081090, reference compound]											pIC50 ([2]; read-out: IC50 T1, 1st Batch, replicate T1): 7.02; pIC50 ([2]; read-out: IC50 T2, 1st Batch, replicate T2): 7.04; pIC50 ([2]; read-out: IC50 T3, 2nd Batch, replicate T3): 7.03; pIC50 ([2]; read-out: IC50 T4, 2nd Batch, replicate T4): 7.03
CC(C)c1noc2ncc(C(=O)c3ccccc3O)cc12 [Compound 12]	1.80 log	1.80 log	1.59 µM	1.58 µM	44 µg/mL	6.05					IC50 [1, 12]: > 100 µM; IC50 [1, 13]: > 10 µM; PFI (Expt) ([4]; experimental): 9.05
